Literature values as cited in US20180140599A1, “PREVENTION AND/OR TREATMENT OF CONTRAST-INDUCED ACUTE KIDNEY INJURY” (Saghmos Therapeutics, Inc., priority 2016, published 2018).

Tested on: patients with high serum creatinine levels undergoing coronary angiography/angioplasty
Settings: four published Phase 2 trials; compared with isotonic saline

In the case of `COc1ccc(CN2CCNCC2)c(OC)c1OC` [Trimetazidine], the “reducing the risk of contrast-induced nephropathy (CIN)” value is listed as “more effective than isotonic saline in reducing the risk of contrast-induced nephropathy (CIN)”.
